Test results reported in US8815857B2 (Boehringer Ingelheim International GmbH, priority 2011, dated 2014).
≈ marks a conversion by molar mass, not a printed value.

Tests used:
[1] = biological target: T1, Recombinant human soluble guanylate cyclase (sGC), alpha 1 / beta 1 subunits, heme-free (Homo sapiens, UniProt Q02108+Q02153); assay: Molecular assay: cGMP formation by heme-free recombinant sGC (CisBio cGMP detection kit); assay type: biochemical; conditions: 300 pM heme-free sGC, 37° C., 60 min, cGMP readout; read-out: EC50 nM, Activity of Compounds in Molecular Assay
T1 construct: histidine tag (C); made in house; host or cells: Sf9 insect cells (baculovirus coinfection)
T1 sequence (Q02108 1-690 partner): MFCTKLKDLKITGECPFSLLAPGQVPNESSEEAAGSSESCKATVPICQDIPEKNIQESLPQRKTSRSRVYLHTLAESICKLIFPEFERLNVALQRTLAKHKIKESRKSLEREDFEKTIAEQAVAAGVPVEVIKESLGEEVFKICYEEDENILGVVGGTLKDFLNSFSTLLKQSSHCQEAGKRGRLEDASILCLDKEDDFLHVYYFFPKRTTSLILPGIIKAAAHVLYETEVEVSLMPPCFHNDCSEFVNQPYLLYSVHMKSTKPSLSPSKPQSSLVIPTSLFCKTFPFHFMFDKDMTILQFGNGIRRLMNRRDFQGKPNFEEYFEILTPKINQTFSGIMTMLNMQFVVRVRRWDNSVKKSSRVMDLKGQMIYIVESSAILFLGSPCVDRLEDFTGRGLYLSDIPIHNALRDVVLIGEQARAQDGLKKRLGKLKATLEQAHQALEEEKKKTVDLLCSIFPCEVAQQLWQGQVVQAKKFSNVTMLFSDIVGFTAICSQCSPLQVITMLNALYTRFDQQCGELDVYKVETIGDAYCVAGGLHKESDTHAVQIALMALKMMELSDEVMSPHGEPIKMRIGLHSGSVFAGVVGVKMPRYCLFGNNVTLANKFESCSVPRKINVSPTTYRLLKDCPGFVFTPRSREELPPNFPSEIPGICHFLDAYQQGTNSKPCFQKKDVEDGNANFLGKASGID
T1 sequence (Q02153 1-619): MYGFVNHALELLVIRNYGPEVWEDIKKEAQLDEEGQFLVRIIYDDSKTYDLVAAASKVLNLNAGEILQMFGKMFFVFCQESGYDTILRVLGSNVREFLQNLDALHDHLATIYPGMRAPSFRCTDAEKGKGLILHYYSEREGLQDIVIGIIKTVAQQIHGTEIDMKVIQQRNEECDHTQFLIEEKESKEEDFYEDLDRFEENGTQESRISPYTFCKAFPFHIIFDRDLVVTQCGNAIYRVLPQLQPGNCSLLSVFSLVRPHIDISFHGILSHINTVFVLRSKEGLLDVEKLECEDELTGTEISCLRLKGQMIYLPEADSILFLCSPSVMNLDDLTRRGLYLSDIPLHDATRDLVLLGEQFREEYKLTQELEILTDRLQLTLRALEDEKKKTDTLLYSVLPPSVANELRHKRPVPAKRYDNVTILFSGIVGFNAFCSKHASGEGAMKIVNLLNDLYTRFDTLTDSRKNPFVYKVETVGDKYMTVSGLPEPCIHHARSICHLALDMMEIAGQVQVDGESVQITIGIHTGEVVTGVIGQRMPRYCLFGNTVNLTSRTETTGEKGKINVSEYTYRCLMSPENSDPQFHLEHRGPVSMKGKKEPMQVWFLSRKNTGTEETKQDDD
In short: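 cGMP generated over 60 min at 37° C (pH 6.8 MOPS buffer, 50 nM GTP, 1.25 mM IBMX, 1% DMSO) by 300 pM heme-free sGC, expressed in Sf9 and heme-stripped with 0.5% Tween 20. HTRF ratios converted to nM cGMP; EC50 fitted from log concentration.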

[2] = Assessment of solubility: HT solubility in pION buffer, UV spectrophotometry; conditions: kinetic from dmso stock
[3] = biological target: T2, human soluble guanylate cyclase alpha 1 and beta 1 subunits (sGC) stably expressed in Chinese hamster ovary cells (Homo sapiens, UniProt Q02108+Q02153); assay: sGC cellular activator assay: cGMP in CHO cells expressing human sGC, preincubated with ODQ; assay type: cell-based; conditions: 40 microM ODQ preincubation, 30 min at room temperature, presence or absence of 50% human serum not given, read-out: EC50 nM, Activity of Compounds in Cellular Assay
T2 construct: expressed in transfected cells; host or cells: Chinese hamster ovary cells, stably transfected
T2 sequence (Q02108 1-690 partner): T1 sequence (Q02108 1-690 partner)
T2 sequence (Q02153 1-619): T1 sequence (Q02153 1-619)
Procedure: The sGC cellular activator assay is performed in the presence and absence of 50% human serum (HS) using Chinese hamster ovary cells that have been stably transfected to express the human soluble guanylate cyclase alpha 1 and beta 1 subunits (sGC). Cells are preincubated with 40 microM 1H-[1,2,4]oxadiazolo[4,3-a]quinoxalin-1-one (ODQ), an sGC inhibitor, for one hour in buffer containing 0.1% bovine serum albumin and 3-isobutyl-1-methylxanthine (IBMX). Concentration response curves are prepared for test compounds in DMSO. An intermediate dilution of the compounds is performed in either buffer containing IBMX or type AB HS containing IBMX. Diluted compounds are added to cells and they are incubated at room temperature for thirty minutes. cGMP is measured using a CisBio homogeneous time resolved fluorescence kit and the EC50 is calculated for each compound.

[4] = pION system solution buffer, pH 4.5, pH 4.5, aqueous buffer, Solubility (pH 4.5), pH 4.5 buffer, 16-19 h incubation, 1.0% DMSO
[5] = pION system solution buffer, pH 7.4, pH 7.4, aqueous buffer, Solubility (pH 7.4), pH 7.4 buffer, 16-19 h incubation, 1.0% DMSO

Compound | EC50 [1] [nM] | solubility [2, 4] [µg/mL] | solubility [2, 5] [µg/mL] | EC50 [3] [nM] | solubility ([2]; pH 6.8, aqueous buffer, Solubility (pH 6.8), pH 6.8) [µg/mL]
Cc1cc(CN2CCS(=O)(=O)CC2)ccc1COc1ccccc1-c1csc(N2CCC(C(=O)O)C(C(F)(F)F)C2)n1 (centres unmarked) [Compound 150] | 1200 | 1.4 (≈ 2.24 µM) | > 62 | – | –
Cc1cc(CN2CCS(=O)(=O)CC2)ccc1COc1c(-c2csc(N3CCC(C(=O)O)CC3)n2)cccc1C(F)(F)F [Compound 151] | 9.9 | 0.15 (≈ 0.24 µM) | > 62 | – | –
Cc1cc(CN2CCS(=O)(=O)CC2)ccc1COc1ccccc1-c1csc(N2CCC(C(=O)O)CC2C(F)(F)F)n1 (centres unmarked) [Compound 152] | 170 | 0.3 (≈ 0.481 µM) | > 62 | – | –
Cc1ccc(OCc2ccc(CN3CCS(=O)(=O)CC3)cc2C)c(-c2csc(N3CCC(C(=O)O)CC3C(F)(F)F)n2)c1 (centres unmarked) [Compound 153] | 43 | 0.2 (≈ 0.314 µM) | > 63 | – | –
Cc1ccc(OCc2ccc(CN3CCS(=O)(=O)CC3)cc2C)c(-c2csc(N3CCC(C(=O)O)C(C(F)(F)F)C3)n2)c1 (centres unmarked) [Compound 154] | 530 | 0.8 (≈ 1.25 µM) | > 63 | – | –
Cc1cc(CN2CCS(=O)(=O)CC2)ccc1COc1ccc(C#N)cc1-c1csc(N2CCC(C(=O)O)C(C(F)(F)F)C2)n1 (centres unmarked) [Compound 156] | 3100 | 0.45 (≈ 0.694 µM) | > 64 | – | –
Cc1cc(CN2CCS(=O)(=O)CC2)ccc1COc1ccc(Cl)cc1-c1csc(N2CCC(C(=O)O)C(C(F)(F)F)C2)n1 (centres unmarked) [Compound 157] | 940 | 0.15 (≈ 0.228 µM) | > 65 | – | –
Cc1cc(CN2CCOCC2)ccc1COc1ccccc1-c1csc(N2CCC(C(=O)O)CC2)n1 [Compound 166] | 520 | > 55 | > 55 | – | –
Cc1ccc(OCc2ccc(CN3CCOCC3)cc2C#N)c(-c2csc(N3CCC(C(=O)O)CC3)n2)c1 [Compound 167] | 52 | 41 (≈ 77 µM) | > 64 | – | –
Cc1cc(CN2CCOCC2)ccc1COc1ccc(C#N)cc1-c1csc(N2CCC(C(=O)O)CC2)n1 [Compound 168] | 730 | 36 (≈ 67.6 µM) | > 57 | – | –
COCCN(C)Cc1ccc(COc2ccc(C#N)cc2-c2csc(N3CCC(C(=O)O)CC3)n2)c(C)c1 [Compound 171] | 2400 | 34 (≈ 63.6 µM) | 36 (≈ 67.3 µM) | – | –
COCCNCc1ccc(COc2ccc(C#N)cc2-c2csc(N3CCC(C(=O)O)CC3)n2)c(C)c1 [Compound 172] | 5600 | 41 (≈ 78.7 µM) | > 63 | – | –
Cc1ccc(OCc2ccc(CN3CCOCC3)cc2C)c(-c2csc(N3CC[C@@H](C(=O)O)[C@@H](C)C3)n2)c1 [Compound 173] | 140 | > 64 | > 64 | – | –
Cc1ccc(OCc2ccc(CN3CCOCC3)cc2C)c(-c2csc(N3C4CCC3CC(C(=O)O)C4)n2)c1 (centres unmarked) [Compound 174] | 320 | > 66 | > 66 | – | –
Cc1ccc(OCc2ccc(CN3CCOCC3)cc2C)c(-c2csc(N(C)CCCC(=O)O)n2)c1 [Compound 179] | 990 | > 55 | > 55 | – | –
Cc1ccc(OCc2ccc(CN3CCOCC3)cc2C)c(-c2csc(N[C@H]3CC[C@@H](C(=O)O)C3)n2)c1 [Compound 181] | 3100 | > 52 | > 52 | – | –
Cc1ccc(OCc2ccc(CN3CCN(S(C)(=O)=O)CC3)cc2C)c(-c2csc(N3CCC(C(=O)O)CC3)n2)c1 [Compound 196] | 110 | 16 (≈ 26.7 µM) | 37 (≈ 61.8 µM) | – | –
Cc1ccc(OCc2ccc(CN3CCN(C(=O)C4CCOC4)CC3)cc2C)c(-c2csc(N3CCC(C(=O)O)CC3)n2)c1 (centres unmarked) [Compound 197] | 230 | 51 (≈ 82.4 µM) | > 71 | – | –
Cc1ccc(OCc2ccc(CN3CCN(C(=O)N(C)C)CC3)cc2C)c(-c2csc(N3CCC(C(=O)O)CC3)n2)c1 [Compound 199] | 140 | > 59 | > 59 | – | –
Cc1ccc(OCc2ccc(CN3CCN(S(=O)(=O)N(C)C)CC3)cc2C)c(-c2csc(N3CCC(C(=O)O)CC3)n2)c1 [Compound 200] | 80 | 8.5 (≈ 13.5 µM) | 30 (≈ 47.8 µM) | – | –
Cc1ccc(OCc2ccc(CN3CCOCC3)cc2C)c(-c2csc(N[C@H]3CC[C@@H](C(=O)O)CC3)n2)c1 [Compound 201] | 960 | 36 (≈ 67.2 µM) | > 53 | – | –
Cc1ccc(OCc2ccc(C(=O)N3CCCCC3)cc2C)c(-c2nc(N3C[C@H]4CC[C@@H](C3)[C@H]4C(=O)O)sc2F)c1 [Compound 202, 3-[5-fluoro-4-[5-methyl-2-[[2-methyl-4-(piperidine-1-carbonyl)phenyl]methoxy]phenyl]thiazol-2-yl]-3-azabicyclo[3.2.1]octane-8(syn)-carboxylic acid] | – | 97 (≈ 168 µM) | > 59 | 310 | 91 (≈ 158 µM)
Cc1ccc(OCc2ccc(CN3CCOCC3)cc2C)c(-c2csc(N3CC(C(=O)O)C3)n2)c1 [Compound 215] | 1000 | > 60 | > 60 | – | –
Cc1ccc(OCc2ccc(CN3CCOCC3)cc2C)c(-c2csc(N3CCC4CC4(C(=O)O)CC3)n2)c1 (centres unmarked) [Compound 231] | – | – | – | 150 | –
Cc1ccc(OCc2ccc(C(=O)N3CCCCC3)cc2C)c(-c2csc(N3CC[C@@H](C(=O)O)[C@H]3C)n2)c1 [Compound 240] | – | – | – | 36 | –
Cc1ccc(OCc2ccc(C(=O)N3CCCCC3)cc2OC(F)(F)F)c(-c2csc(N3C[C@H]4CC[C@@H](C3)[C@H]4C(=O)O)n2)c1 [Compound 279] | – | – | – | 11 | –
Cc1ccc(OCc2ccc(CN3CCN(C)C(=O)C3)cc2C)c(-c2csc(N3CCC(C(=O)O)CC3)n2)c1 [Compound 292] | – | – | – | 10 | –
